Laboratory results from patent EP1169641B1, “PROTEOME MINING” (THE UNIVERSITY OF VIRGINIA PATENT FOUNDATION, priority 1999, dated 2000).

Target: T1, purified human ADE2 (Homo sapiens, UniProt P22234)
T1 sequence (P22234 1-425): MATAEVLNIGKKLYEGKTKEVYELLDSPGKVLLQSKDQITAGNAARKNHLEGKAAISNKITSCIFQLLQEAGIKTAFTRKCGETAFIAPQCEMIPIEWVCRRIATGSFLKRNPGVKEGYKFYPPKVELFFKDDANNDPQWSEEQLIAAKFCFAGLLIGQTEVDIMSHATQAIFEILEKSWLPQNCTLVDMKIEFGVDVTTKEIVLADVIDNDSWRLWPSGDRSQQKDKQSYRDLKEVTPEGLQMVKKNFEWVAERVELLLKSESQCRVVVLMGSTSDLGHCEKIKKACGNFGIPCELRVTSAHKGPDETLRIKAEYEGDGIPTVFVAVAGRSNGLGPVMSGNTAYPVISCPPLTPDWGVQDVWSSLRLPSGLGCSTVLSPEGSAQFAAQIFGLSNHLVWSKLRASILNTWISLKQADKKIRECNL
Experiment: Assay of purified ADE2 (apparent Ki)
Assay type: biochemical
Conditions: apparent Ki for ADE2, three separate experiments, read-out: Ki^-1
Experimental: All assays were performed against purified human ADE2. Results shown are from three separate experiments. Compounds that eluted HSP90 selectively had no effect of ADE2 activity in vitro at µM concentrations. […] Table 2. Determination of apparent Ki for ADE2 against GA structural analogs

Question: How did the Ki turn out when `CO[C@H]1/C=C\C=C(/C)C(=O)NC2=CC(=O)C(NCCN(C)C)=C(C[C@@H](C)C[C@H](OC)[C@H](O)[C@@H](C)/C=C(\C)[C@@H]1OC(N)=O)C2=O` [Inhibitor 707545] was run?
Answer: Its Ki is 62.5 µM.
